Test results as given in paper PMC10812672, “Short Antimicrobial Peptide Derived from the Venom Gland Transcriptome of Pamphobeteus verdolaga Increases Gentamicin Susceptibility of Multidrug-Resistant Klebsiella pneumoniae” (Antibiotics, 2023).
Ends that are not written are not given here.

Tests used:
[1] = test system: S. aureus ATCC® 29213; assay type: cell-based, Staphylococcus aureus; conditions: CLSI broth microdilution, Mueller-Hinton broth, peptide 30 µM, ~6 × 10^6 CFU/mL, 24 h 37 °C, OD600; triplicate, three independent assays; NA = no activity
Description: (§1) Activity screening was conducted using the broth microdilution method at a fixed peptide concentration of 30 µM against E. coli ATCC® 8739 and 25922, as well as S. aureus ATCC® 6538 and 29213. The bacterial density used for screening was approximately 6 × 10^6 CFU/mL [30]. Peptide activity measurements were conducted in terms of the growth inhibition percentage. No dose-response curves were generated during the screening phase as a resource optimization strategy in the initial activity evaluation. […] For S. aureus ATCC® 6538 and S. aureus ATCC® 29213, growth inhibition ranged from 0% to 140% and 0% to 98%, respectively (Table 1).
(§2) The evaluation of the antimicrobial activity of the peptides was conducted using the CLSI’s broth microdilution method for bacterial susceptibility testing. For the screening phase, peptides were evaluated at a single 30 μM concentration, in triplicate and in three independent assays, against the E. coli ATCC® 8739, E. coli ATCC® 25922, S. aureus ATCC® 6538, or S. aureus ATCC® 29213 reference USP and CLSI strains. For the determination of MIC, MBC, or IC50, peptides or antibiotics were evaluated in concentrations between 1.56–200 µM. These evaluations were conducted in triplicate and in three independent assays, against the E. coli ATCC® 25922, S. aureus ATCC® 29213, E. faecalis ATCC® 49532, P. aeruginosa ATCC® 9027, and K. pneumoniae ATCC® BAA-1705, or the clinically isolated MDR strain. In detail, 1 mL of a glycerol stock solution of the ATCC® or clinically isolated bacterial strain was added to 9 mL of Mueller-Hinton Broth and incubated for 18 h, 180 rpm and 37 °C (Incubator 1000, Heidolph Instruments, Schwabach, Germany). After the incubation, 1 mL of the previous solution was transferred to a new recipient containing 9 mL of fresh Mueller-Hinton broth and incubated for 4 h, 180 rpm and 37 °C (Incubator 1000, Heidolph Instruments, Schwabach, Germany). During the second incubation, the peptides or the antibiotics were dissolved in PBS pH 7.20 in concentrations between 19.53–2500 µM (MC5 Micro Balance, Sartorius AG, Göttingen, Germany). An amount of 10 µL of either peptide or antibiotic was dispensed in triplicate in 96-well flat bottom culture plates, along with 10 µL of PBS (Negative activity control), BTM-P1 (Positive activity control), or 10 µL of Mueller-Hinton broth (Blank); then, 110 µL of Mueller-Hinton broth was poured in all wells. Following this, the bacteria were suspended in Mueller-Hinton broth up to a concentration of approximately 1.50 × 10^8 CFU/mL, as measured by optical density at 600 nm between 0.06 to 0.11 (0.5 McFarland standard), in a Multiskan SkyHigh spectrophotometer (ThermoFisher Scientific, Waltham, MA, USA). Amounts of 5 µL of the 1.50 × 10^8 CFU/mL suspension were added to each well (except for the blank) for a final well concentration of approximately 6 × 10^6 CFU/mL. The plate was incubated for 24 h at 37 °C (BE 500, Memmert GmbH, Büchenbach, Germany) and optical density was measured at 600 nm in a Multiskan SkyHigh spectrophotometer (ThermoFisher Scientific, Waltham, MI, USA). Following the measurement of optical density, plates were visually inspected to determine the MIC. Subsequently, 100 µL of the concentration associated to the MIC and 100 µL of the next higher concentration were added to Petri dishes containing Mueller-Hinton Agar. The dishes were then incubated for 24 h at 37 °C (BE 500, Memmert GmbH, Büchenbach, Germany). After incubation, the Petri dishes were visually inspected, and the MBC was determined in the absence of growth. IC50 values were interpolated from regressions with correlation values above 0.70. Growth inhibition percentages were calculated as follows: Growth inhibition %=1−AbsPEPTIDE or ANTIBIOTIC−Median AbsBLANK/Median AbsPBS−Median AbsBLANK×100

[2] = test system: S. aureus ATCC® 6538; assay type: cell-based, Staphylococcus aureus; conditions: CLSI broth microdilution, Mueller-Hinton broth, peptide 30 µM, ~6 × 10^6 CFU/mL, 24 h 37 °C, OD600; triplicate, three independent assays; NA = no activity
Description: as §1, §2

WKKIKKFF-NH2 [PvAMP66]
S. aureus ATCC® 29213 (Inhibition %) [1]: 98.25 ± 0.39 %
S. aureus ATCC® 6538 (Inhibition %) [2]: 139.72 ± 1.90 %
